According to PubChem BioAssay AID1963867 (Molecular Pharmacology Branch, DTP, NCI, 2024):

Test system: KRAS-mutant PDC tumor spheroid with HUVEC/MSC, viability
Assay: Anticancer human tumor 327498-153-R-J2-PDC patient-derived uterine carcinosarcoma cell line growth inhibition [KRAS2]
Details: for viability, T/C: stronger effect = lower value; active means viability on the fitted dose curve at most 10% of control; inactive means the rest
Summary of the method: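 KRAS-mutant tumor cells were grown as spheroids with HUVEC endothelial cells and human MSCs as stroma. Targeted agents were tested alone and with KRAS pathway inhibitors. Doses started at or near clinical Cmax, or 10 microM, descending half-log.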

[1] = curve of first compound, second compound 0.1 µM
[2] = curve of first compound, second compound 0.316 µM
[3] = curve of first compound, second compound 1 µM
[4] = curve of first compound, second compound 3.16 µM
[5] = curve of first compound, second compound 10 µM
[6] = second compound 0.1 µM, first compound 0.0316 µM
[7] = second compound 0.1 µM, first compound 0.1 µM
[8] = second compound 0.1 µM, first compound 0.316 µM
[9] = second compound 0.1 µM, first compound 1 µM
[10] = second compound 0.1 µM, first compound 3.16 µM
[11] = second compound 0.1 µM, first compound 10 µM
[12] = second compound 0.316 µM, first compound 0.0316 µM
[13] = second compound 0.316 µM, first compound 0.1 µM
[14] = second compound 0.316 µM, first compound 0.316 µM
[15] = second compound 0.316 µM, first compound 1 µM
[16] = second compound 0.316 µM, first compound 3.16 µM
[17] = second compound 0.316 µM, first compound 10 µM
[18] = second compound 1 µM, first compound 0.0316 µM
[19] = second compound 1 µM, first compound 0.1 µM
[20] = second compound 1 µM, first compound 0.316 µM
[21] = second compound 1 µM, first compound 1 µM
[22] = second compound 1 µM, first compound 3.16 µM
[23] = second compound 1 µM, first compound 10 µM
[24] = second compound 3.16 µM, first compound 0.0316 µM
[25] = second compound 3.16 µM, first compound 0.1 µM
[26] = second compound 3.16 µM, first compound 0.316 µM
[27] = second compound 3.16 µM, first compound 1 µM
[28] = second compound 3.16 µM, first compound 3.16 µM
[29] = second compound 3.16 µM, first compound 10 µM
[30] = second compound 10 µM, first compound 0.0316 µM
[31] = second compound 10 µM, first compound 0.1 µM
[32] = second compound 10 µM, first compound 0.316 µM
[33] = second compound 10 µM, first compound 1 µM
[34] = second compound 10 µM, first compound 3.16 µM
[35] = second compound 10 µM, first compound 10 µM
[36] = second compound 0.1 µM, first compound 0.00316 µM
[37] = second compound 0.1 µM, first compound 0.01 µM
[38] = second compound 0.316 µM, first compound 0.00316 µM
[39] = second compound 0.316 µM, first compound 0.01 µM
[40] = second compound 1 µM, first compound 0.00316 µM
[41] = second compound 1 µM, first compound 0.01 µM
[42] = second compound 3.16 µM, first compound 0.00316 µM
[43] = second compound 3.16 µM, first compound 0.01 µM
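Further: spheroids exposed to agents for seven days before reading.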
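Wherever viability, T/C is given: 100% = DMSO vehicle wells so lower means fewer viable cells.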

O=C(c1cc(Cc2n[nH]c(=O)c3ccccc23)ccc1F)N1CCN(C(=O)C2CC2)CC1 + COc1cc2nc(C)nc(NC(C)c3cc(N)cc(C(F)(F)F)c3)c2cc1OC1CCOC1
0.719 µM: IC50 [5]
inactive: viability, T/C [6] 84.2% | viability, T/C [7] 107% | viability, T/C [8] 89.7% | viability, T/C [9] 78.7% | viability, T/C [10] 37.3% | viability, T/C [11] 20.7% | viability, T/C [12] 77.2% | viability, T/C [13] 79.2% | viability, T/C [14] 81.9% | viability, T/C [15] 68.5% | viability, T/C [16] 30.3% | viability, T/C [17] 15.9% | viability, T/C [18] 109% | viability, T/C [19] 104% | viability, T/C [20] 102% | viability, T/C [21] 94.6% | viability, T/C [22] 37.8% | viability, T/C [23] 18.7% | viability, T/C [24] 78.4% | viability, T/C [25] 77.3% | viability, T/C [26] 76.1% | viability, T/C [27] 66.3% | viability, T/C [28] 32.5% | viability, T/C [29] 18.5% | viability, T/C [30] 99.8% | viability, T/C [31] 61% | viability, T/C [32] 63% | viability, T/C [33] 56.9% | viability, T/C [34] 25.3% | viability, T/C [35] 14.7%
1.74 µM: IC50 [4]
2.47 µM: IC50 [3]
2.22 µM: IC50 [1]
1.75 µM: IC50 [2]

CC(C)n1nc(-c2ccc3oc(N)nc3c2)c2c(N)ncnc21 + COc1cc2nc(C)nc(NC(C)c3cc(N)cc(C(F)(F)F)c3)c2cc1OC1CCOC1
0.000824 µM: IC50 [4]
0.00434 µM: IC50 [1]
inactive: viability, T/C (second compound 0.1 µM, first compound 0.000316 µM) 77.5% | viability, T/C (second compound 0.1 µM, first compound 0.001 µM) 71.7% | viability, T/C [36] 59.1% | viability, T/C [37] 27.3% | viability, T/C [6] 10.2% | viability, T/C (second compound 0.316 µM, first compound 0.000316 µM) 71.5% | viability, T/C (second compound 0.316 µM, first compound 0.001 µM) 60.4% | viability, T/C [38] 46.5% | viability, T/C [39] 23.3% | viability, T/C [12] 8.8% | viability, T/C (second compound 1 µM, first compound 0.000316 µM) 60.2% | viability, T/C (second compound 1 µM, first compound 0.001 µM) 63.7% | viability, T/C [40] 40.1% | viability, T/C [41] 26.3% | viability, T/C [18] 8.62% | viability, T/C (second compound 3.16 µM, first compound 0.000316 µM) 52.6% | viability, T/C (second compound 3.16 µM, first compound 0.001 µM) 50.1% | viability, T/C [42] 36.1% | viability, T/C [43] 17.1% | viability, T/C (second compound 10 µM, first compound 0.000316 µM) 38.8% | viability, T/C (second compound 10 µM, first compound 0.001 µM) 35.5% | viability, T/C (second compound 10 µM, first compound 0.00316 µM) 23.4% | viability, T/C (second compound 10 µM, first compound 0.01 µM) 17.4%
0.00229 µM: IC50 [2]
0.00198 µM: IC50 [3]
active: viability, T/C [7] 6.27% | viability, T/C [13] 6.67% | viability, T/C [19] 6.87% | viability, T/C [24] 7.65% | viability, T/C [25] 4.15% | viability, T/C [30] 3.51% | viability, T/C [31] 1.94%
< 0.000316 µM: IC50 [5]

COC(=O)c1ccc2c(C(=Nc3ccc(N(C)C(=O)CN4CCN(C)CC4)cc3)c3ccccc3)c(O)[nH]c2c1 + COc1cc2nc(C)nc(NC(C)c3cc(N)cc(C(F)(F)F)c3)c2cc1OC1CCOC1
inactive: viability, T/C [6] 94.6% | viability, T/C [7] 77.2% | viability, T/C [8] 72.2% | viability, T/C [9] 83.7% | viability, T/C [10] 33.9% | viability, T/C [11] 34.5% | viability, T/C [12] 73% | viability, T/C [13] 65.1% | viability, T/C [14] 57% | viability, T/C [15] 40.4% | viability, T/C [16] 29% | viability, T/C [17] 24.8% | viability, T/C [18] 62% | viability, T/C [19] 59% | viability, T/C [20] 64.3% | viability, T/C [21] 42.9% | viability, T/C [22] 25.5% | viability, T/C [23] 20.4% | viability, T/C [24] 69.5% | viability, T/C [25] 69.6% | viability, T/C [26] 60.9% | viability, T/C [27] 39.3% | viability, T/C [28] 19.9% | viability, T/C [30] 54.2% | viability, T/C [31] 58.9% | viability, T/C [32] 47.1% | viability, T/C [33] 27.2%
2.16 µM: IC50 [1]
0.648 µM: IC50 [3]
active: viability, T/C [29] 0.17% | viability, T/C [34] 2.2% | viability, T/C [35] 0.22%
0.49 µM: IC50 [2]
0.585 µM: IC50 [4]
0.28 µM: IC50 [5]

O=C(c1cc(Cc2n[nH]c(=O)c3ccccc23)ccc1F)N1CCN(C(=O)C2CC2)CC1
2.58 µM [middle of 5 runs]: IC50 (curve of compound)
inactive: viability, T/C (compound 0.0316 µM) 108% [middle of 5 runs] | viability, T/C (compound 0.1 µM) 99.3% [middle of 5 runs] | viability, T/C (compound 0.316 µM) 93% [middle of 5 runs] | viability, T/C (compound 1 µM) 81.6% [middle of 5 runs] | viability, T/C (compound 3.16 µM) 41.5% [middle of 5 runs] | viability, T/C (compound 10 µM) 18.4% [middle of 5 runs]

COC(=O)c1ccc2c(C(=Nc3ccc(N(C)C(=O)CN4CCN(C)CC4)cc3)c3ccccc3)c(O)[nH]c2c1
inactive: viability, T/C (compound 0.0316 µM) 89.5% [middle of 5 runs] | viability, T/C (compound 0.1 µM) 94.6% [middle of 5 runs] | viability, T/C (compound 0.316 µM) 84.9% [middle of 5 runs]

CCN1CCN(Cc2ccc(Nc3ncc(F)c(-c4cc(F)c5nc(C)n(C(C)C)c5c4)n3)nc2)CC1 + C=CC(=O)N1CCN(c2nc(OCC3CCCN3C)nc3c2CCN(c2cccc4cccc(C)c24)C3)CC1CC#N
< 0.00316 µM: IC50 (curve of first compound, second compound 0.0316 µM) | IC50 [1] | IC50 [2] | IC50 [3] | IC50 [4]
active: viability, T/C [42] 1.79% | viability, T/C [43] 0.22% | viability, T/C [24] 0.46% | viability, T/C [25] 0.84% | viability, T/C [26] 0.58% | viability, T/C [27] 0.24%
inactive: viability, T/C (second compound 0.0316 µM, first compound 0.00316 µM) 55.9% | viability, T/C (second compound 0.0316 µM, first compound 0.01 µM) 46.6% | viability, T/C (second compound 0.0316 µM, first compound 0.0316 µM) 33.4% | viability, T/C (second compound 0.0316 µM, first compound 0.1 µM) 35.2% | viability, T/C (second compound 0.0316 µM, first compound 0.316 µM) 34.5% | viability, T/C (second compound 0.0316 µM, first compound 1 µM) 40.4% | viability, T/C [36] 49.1% | viability, T/C [37] 35.4% | viability, T/C [6] 28.2% | viability, T/C [7] 34.2% | viability, T/C [8] 33.7% | viability, T/C [9] 36.4% | viability, T/C [38] 40.5% | viability, T/C [39] 33.1% | viability, T/C [12] 30.1% | viability, T/C [13] 24% | viability, T/C [14] 33.3% | viability, T/C [15] 37.9% | viability, T/C [40] 31.1% | viability, T/C [41] 23.1% | viability, T/C [18] 21.1% | viability, T/C [19] 19.3% | viability, T/C [20] 23.5% | viability, T/C [21] 13.5%

CC(C)NCC(C(=O)N1CCN(c2ncnc3c2C(C)CC3O)CC1)c1ccc(Cl)cc1 (stereo not given) + CC1OCC2(CCN(c3cnc(Sc4ccnc(N)c4Cl)c(N)n3)CC2)C1N
0.105 µM: IC50 [1]
inactive: viability, T/C [6] 59.3% | viability, T/C [7] 52.5% | viability, T/C [8] 32.5% | viability, T/C [9] 22.5% | viability, T/C [10] 16.5% | viability, T/C [11] 11.9% | viability, T/C [12] 43.1% | viability, T/C [13] 33% | viability, T/C [14] 16.4% | viability, T/C [15] 13.8% | viability, T/C [18] 29.1% | viability, T/C [19] 20.7% | viability, T/C [20] 14.5% | viability, T/C [24] 20.9% | viability, T/C [25] 15.3% | viability, T/C [30] 16.4% | viability, T/C [31] 12.2%
active: viability, T/C [16] 10.8% | viability, T/C [17] 7.02% | viability, T/C [21] 8.77% | viability, T/C [22] 7.91% | viability, T/C [23] 5.17% | viability, T/C [26] 9.04% | viability, T/C [27] 6.16% | viability, T/C [28] 5.92% | viability, T/C [29] 4.91% | viability, T/C [32] 9.27% | viability, T/C [33] 6.34% | viability, T/C [34] 4.8% | viability, T/C [35] 3.45%
< 0.0316 µM: IC50 [2] | IC50 [3] | IC50 [4] | IC50 [5]
